Source: patent US20110009616A1, “AGENT FOR PREVENTING ARTERIOSCLEROSIS” (priority 2006, published 2011)

Key:
Type in all cases: cell-based
smooth muscle cells = assay: Oxidized LDL uptake into smooth muscle cells, IN Cell Analyzer (Example 8); conditions: FIG. 7
Protocol: As for the compounds in Examples 1 and 2 and Comparative Example 6, the abilities to suppress the oxidized LDL uptake into the smooth muscle cells were evaluated in a similar method to Example 6.
The smooth muscle cells were prepared to 1×10^5 cells/mL and seeded into a 96-well plate. After cultivating for two days, the cells were treated by each inhibitor in a similar method to Example 6. After the treatment of each inhibitor, the cells were washed with PBS three times and fixed with a 10% formalin solution at room temperature in the dark for 10 minutes. The fixed cells were washed with ultrapure water twice and the nuclei were dyed with DAPI. These cells were analyzed with “IN Cell Analyzer” (manufactured by GE Healthcare Bio-Sciences KK), and the uptake number of Dil-labeled oxidized LDL into the smooth muscle cells was divided by the number of nuclei. Furthermore, 4 fields of view per well were measured and the measurements were n=3 per treatment.

hLOX-1 = target: T1, hLOX-1 (Homo sapiens, UniProt P78380); assay: Fluorescently labeled oxidized LDL uptake into CHO cells expressing hLOX-1, tetracycline induction (Example 6); conditions: FIG. 5; control = 100%; compared with anti-hLOX antibody
T1 construct: expressed in transfected cells; host or cells: CHO-K1 Tet-On cell line (Clontech), pTRE-hLOX1 (B), doxycycline induction
Protocol: As for the same compounds as in Example 5, using Chinese hamster ovary (CHO) cells stably expressing bLOX-1, an ability to suppress fluorescently labeled oxidized LDL uptake into the CHO cells through the bLOX-1 was evaluated. Furthermore, as for the hLOX-1, in the CHO cells using an induction system of tetracycline gene expression, an ability to suppress fluorescently labeled oxidized LDL uptake through the hLOX-1 was evaluated.
As the CHO cells which express the hLOX-1 depending on tetracycline concentrations, the cells transfected with the plasmid described below in a known method were used. The transfected plasmid has a system where a hLOX-1 coding region integrated in pcDNA3.1-hLOX1-V5 (Journal of Molecular and Cellular Cardiology 39 (3) 553-561 (2005)) is mounted in a tetracycline response vector and the expression of hLOX-1 can be controlled depending on the concentration of tetracycline or doxycycline.
An assay using the CHO cells was carried out in the following manner. […] Then, the oxidized LDL labeled with 1,1′-dioctadecyl-3,3,3′,3′-tetramethylindocarbocyanine perchlorate (DiI, manufactured by Invitrogen), a carbocyanine fluorescence pigment, was applied to each well so as to be 5 μg/mL, and, under the environment described above, the uptake of the fluorescently labeled oxidized LDL was performed into the CHO cells for 4 hours. […]

[1] = test system: normal bovine aortic endothelial cell (BAEC); assay: DiI-OxLDL uptake into normal bovine aortic endothelial cells (Example 7); conditions: FIG. 6

`C=Cc1c(C)c2cc3nc(c4c5[nH]c(cc6nc(cc1[nH]2)C(C)=C6CC)c(C)c5C(=O)[C@@H]4C(=O)OC)[C@@H](CCC(=O)O)[C@@H]3C` [pheophorbide a] was tested, and the “ability to suppress oxidized LDL uptake in smooth muscle cells” value (smooth muscle cells) was “very strong ability to suppress the uptake”, the “suppression of oxidized LDL uptake in smooth muscle cells, compared with anti-LOX-1 antibody” value (smooth muscle cells) was “stronger suppression effect than that of the anti-LOX-1 antibody” and the “amount of oxidized LDL uptake into CHO cells expressing hLOX-1” value (hLOX-1) was “stronger uptake inhibition on hLOX-1 than that of the anti-hLOX antibody”. For the same molecule, the “inhibitory activity on DiI-OxLDL uptake, compared with anti-LOX-1 antibody” value [1] was “stronger than that of the anti-LOX-1 antibody”.
